# Measurements taken from patent US5232937A, “Derivatives of N-phenylbenzamide with anti-ulcer and anti-allergy” (Rotta Research Laboratorium SpA., priority 1989, dated 1993).
# Where two headings read alike, the source gives them in different places.
# Assays:
# [1] = system: gastric acid secretion induced by pentagastrin; experiment: Anti-secretive activity, gastric acid secretion stimulated with pentagastrin (Lai method, modified); type: in vivo; details: Rattus norvegicus, iv, 1 h; I.V.; rats; pentagastrin 30 mcg/kg/h; read-out: ED50, antagonistic activity towards secretion induced by pentagastrin
# Description: (§1) The anti-secretive activities were determined in rats with the use of male animals weighing approximately 200 g, anaesthetised with urethane. Gastric secretion was stimulated with pentagastrin, histamine or cabachol.
# (§2) After tracheotomy, cannulae were inserted in the aesophagus and the duodenum. These were perfused with a tepid solution (37° C.) which was passed through the stomach at a constant flow rate of 1 ml/minute by means of a peristaltic pump. After stabilisation for 20 minutes, the stimulant, dissolved in a physiological solution, was perfused for 120 minutes at the dose indicated in Table 1 in a volume of 0.95 ml/hour. After 60 minutes of perfusion (base stimulation) the product under test was administered intravenously (I.V.) in a bolus and the perfusion of the stimulant was continued for a further 60 minutes. The acid secretion was recorded continuously as a function of time.
# (§3) The activity of the product was evaluated as a percentage reduction in the acid secreted after the administration of the product against the base acidity measured in the first 60 minutes of collection which was in the presence of the stimulant alone.
# [2] = system: gastric acid secretion induced by histamine; experiment: Anti-secretive activity, gastric acid secretion stimulated with histamine (Lai method, modified); type: in vivo; details: Rattus norvegicus, iv, 1 h; I.V.; rats; histamine 2.3 mg/kg/h; read-out: ED50, antagonistic activity towards secretion induced by histamine
# Description: as §1, §2, §3
# [3] = system: gastric acid secretion induced by carbachol; experiment: Anti-secretive activity, gastric acid secretion stimulated with carbachol (Lai method, modified); type: in vivo; details: Rattus norvegicus, iv, 1 h; I.V.; rats; carbachol 30 mcg/kg/h; read-out: ED50, antagonistic activity towards secretion induced by carbachol
# Description: as §1, §2, §3
# [4] = system: actively-sensitised guinea-pig lung fragments (histamine release); experiment: Anaphylaxis in vitro, histamine release from actively sensitised guinea-pig lung fragments (modified Broklehurst method); type: cell-based; details: for inhibition at 10 µg/mL / inhibition at 30 µg/mL / inhibition at 100 µg/mL / inhibition at 300 µg/mL / EC50: Cavia porcellus; for inhibition at 10 µg/mL: 10 mcg/ml; for inhibition at 10 µg/mL / inhibition at 30 µg/mL / inhibition at 100 µg/mL / inhibition at 300 µg/mL: read-out: % inhibition of anaphylactic histamine release; for inhibition at 30 µg/mL: 30 mcg/ml; for inhibition at 100 µg/mL: 100 mcg/ml; for inhibition at 300 µg/mL: 300 mcg/ml; for EC50: guinea-pig lung fragments in vitro, read-out: EC50, anaphylactic histamine release; for activity in the in vitro anaphylaxis model relative to DSCG: compared with DSCG
# Description: Male guinea pigs weighing approximately 250 g were sensitised with […] of grade V egg albumen dissolved in 1 ml of physiological solution and administered (1 ml/kg) I.P. and subcutaneously (S.C.). After three weeks the animals were killed under ethereal anaesthesia by bleeding. The lungs were removed and immersed in Tyrode solution at 4° C. Homogeneous fragments approximately 2 mm long were cut and divided into test pieces containing approximately 400 mg of tissue and […] of Tyrode. The samples were preincubated at 37° C. for 15 minutes with the compounds under test dissolved in 0.1 of Tyrode and incubated for a further 20 minutes at 37° C. The reaction was stopped by cooling in ice.
# 0.8 ml of the supernatant liquid were treated with perchloric acid and centrifuged to remove the proteins. The supernatant liquid was then made alkaline with 5N NaOH, the histamine was extracted with n-butanol and, after suitable dilution with n-heptane, was extracted again in dilute HCl.
# O-phthalaldehyde was added to the samples and their fluorescence was measured with a fluorimeter at 450 mu after activation at 360 mu.
# The histamine concentration in the samples was obtained from a standard straight-line graph in the range 50-800 ng/ml of histamine.
# [5] = system: passive cutaneous anaphylaxis reaction; experiment: Passive cutaneous anaphylaxis (PCA) in rats, modified Goose and Blair method; type: in vivo, rat; details: for ED50: Rattus norvegicus, iv, 0.5 h, I.V., rats
# Description: Male rats weighing approximately 400 g were treated with 10 mg/kg of grade V egg albumen dissolved in 1 ml of a physiological solution by I.M. and intraperitoneal (I.P.) routes. With one mg of Freund's complete adjuvent solution. 13 days after sensitisation, the animals were killed under […] anaesthesia, the blood was taken and the serum was kept at -70° C. after its titre of IgE specific to egg albumen had been assayed. On the basis of type, 2 intradermal injections (i.d.) of 0.1 ml of the antiserum, titrated and suitably diluted were given into the shaved backs of 200 g male rats at a time -24h.
# The products under test were administered I.V. 20 minutes of the antigen. The animals were killed 30 minutes after the challenge, the skin of the back was turned inside out and the larger and smaller diameters of each blemish were measured. In practice the response of each animal was evaluated as the average of four diameters.
# ulcer caused by 25% NaCl = experiment: Cytoprotective activity, ulcer caused by 25% NaCl; type: in vivo; details: Rattus norvegicus, iv, 1 h, read-out: ED50, cytoprotective activity, ulcer caused by 25% NaCl
# Description: (§4) The drugs under test were administered intravenously 15 minutes before the irritant. […] It consists of the assignment of arbitrary points according to the number and gravity of the lesions in accordance with the following criterion:
# (§5) 1 if the length of the necrotic area is 2 mm
# (§6) 2 if the length of the necrotic area is between 2 and 4 mm
# (§7) 3 if the length of the necrotic area is 4 mm
# (§8) 5 if the length of the area is 4 mm with a perforated ulcer.
# (§9) A lesion index is then obtained by adding the number of lesions multiplied by their respective points.
# ulcer caused by ethanol = experiment: Cytoprotective activity, ulcer caused by ethanol; type: in vivo, rat; details: for ED50: Rattus norvegicus, iv, 1 h, read-out: ED50, cytoprotective activity, ulcer caused by ethanol; for protective activity (in words): ulcer models of Table 2 (ethanol, 25% NaCl, stress)
# Description: as §4, §5, §6, §7, §8, §9
# ulcer caused by stress = experiment: Cytoprotective activity, ulcer caused by stress (containment); type: in vivo; details: Rattus norvegicus, im, 5 h, read-out: ED50, cytoprotective activity, ulcer caused by stress
# Description: as §5, §6, §7, §8, §9
# Male rats weighing approximately 150 g which had been starved for 24 hours were imprisoned in individual cylindrical cages and immersed up to the xiphoid process in cool water kept thermostatically at 19° C. The compounds were administrated intramuscularly (I.M.) 15 minutes before the start of the test.
# 5 hours after the start of their containment, the animals were killed, their stomachs were removed and a quantitative evaluation was then carried out as described above.
# [6] = Toxicity (LD50 IV in mice); details: mouse, in vivo
# [7] = I.V., rats, 15 minutes before NaCl
# [8] = I.V., rats, 15 minutes before ethanol
# [9] = I.M., rats, 15 minutes before the test
smiles,measurement,setting,value
"N#Cc1ccc(C(=O)Nc2ccc(-c3nn[nH]n3)cc2)cc1 [Compound 10, N-°4-(5-tetrazolyl)e-phenyl-4-cyanobenzamide]",ED50,[1],42 mg/kg
same,ED50,[2],45 mg/kg
same,ED50,[3],39 mg/kg
"O=C(O)c1cc(=O)c2c(OCC(O)COc3cccc4oc(C(=O)O)cc(=O)c34)cccc2o1 [DSCG, Di-sodium chromoglycate, reference compound]",dose relation of activity (in words),[4]; 10-300 mcg/ml,poorly dose-related
same,"inhibitory effect on the release of histamine, all doses tested",[4]; 10-300 mcg/ml,≤ 50%
same,inhibition at 10 µg/mL,[4],6.8%
same,inhibition at 30 µg/mL,[4],19.7%
same,inhibition at 100 µg/mL,[4],17.8%
same,inhibition at 300 µg/mL,[4],41.2%
same,EC50,[4],1460 µg/mL
same,% inhibition of passive cutaneous anaphylaxis,[5]; 50 mg/kg I.V.,16.0%
same,% inhibition of passive cutaneous anaphylaxis,[5]; 100 mg/kg I.V.,22.1%
same,% inhibition of passive cutaneous anaphylaxis,[5]; 150 mg/kg I.V.,57.5%
same,ED50,[5],153 mg/kg
"O=C(O)c1cc(NC(=O)c2ccc(Cl)cc2)cc(C(=O)O)c1 [Compound 3, N-(3,5-dicarboxy)phenyl-4-chlorobenzamide]",ED50,[1],115 mg/kg
same,ED50,[2],108 mg/kg
same,ED50,[3],104 mg/kg
"CN/C(=N/CCSCc1nc[nH]c1C)NC#N [[…], cimetidine, reference compound]",ED50,ulcer caused by 25% NaCl,> 50 mg/kg
same,ED50,ulcer caused by ethanol,> 50 mg/kg
same,protective activity (in words),ulcer caused by ethanol,inactive
same,ED50,ulcer caused by stress,> 75 mg/kg
"N#Cc1ccc(C(=O)Nc2cc(C(N)=O)cc(C(=O)O)c2)cc1 [Compound 13, N-(3-carboxy-5-carbamoyl)phenyl-4-cyanobenzamide]",ED50,[1],68 mg/kg
same,ED50,[2],73 mg/kg
same,ED50,[3],65 mg/kg
"O=C(O)c1cc(NC(=O)c2ccc(O)c(O)c2)cc(C(=O)O)c1 [Compound 7, N-(3,5-dicarboxy)phenyl-3,4-di-hydroxybenzamide]",ED50,[1],97 mg/kg
same,ED50,[2],102 mg/kg
same,ED50,[3],90 mg/kg
"N#Cc1ccc(C(=O)Nc2cc(C(=O)O)cc(C(=O)O)c2)cc1 [Compound 1, N-(3,5-dicarboxy)phenyl-4-cyanobenzamide]",ED50,ulcer caused by 25% NaCl; [7],42 mg/kg
same,ED50,ulcer caused by ethanol; [8],45 mg/kg
same,LD50,[6]; IV in mice,2400 mg/kg
same,selectivity ratio,"[6]; LD50 IV mice versus ED50 of pentagastrin, read-out: toxic dose relative to the antacid-secretion dose",~50
same,ED50,ulcer caused by stress; [9],135 mg/kg
same,ED50,[1],50 mg/kg
same,ED50,[2],47 mg/kg
same,ED50,[3],33 mg/kg
same,% inhibition of passive cutaneous anaphylaxis,[5]; 50 mg/kg I.V.,20.0%
same,% inhibition of passive cutaneous anaphylaxis,[5]; 100 mg/kg I.V.,37.2%
same,% inhibition of passive cutaneous anaphylaxis,[5]; 150 mg/kg I.V.,58.2%
same,ED50,[5],128 mg/kg
"COc1ccc(C(=O)Nc2cc(C(=O)O)cc(C(=O)O)c2)cc1OC [Compound 8, N-(3,5-dicarboxy)phenyl-3,4-dimethoxybenzamide]",ED50,[1],208 mg/kg
same,ED50,[2],222 mg/kg
same,ED50,[3],188 mg/kg
"O=C(Nc1ccc(-c2nn[nH]n2)cc1)c1ccc(-c2nn[nH]n2)cc1 [Compound 12, N-°4-(5-tetrazolyl)phenyl-4-(5-tetrazolyl)-benzamide]",ED50,ulcer caused by 25% NaCl,12 mg/kg
same,ED50,ulcer caused by ethanol,3 mg/kg
same,inhibition at 10 µg/mL,[4],22.8%
same,inhibition at 30 µg/mL,[4],28.4%
same,inhibition at 100 µg/mL,[4],56.2%
same,inhibition at 300 µg/mL,[4],65.4%
same,EC50,[4],93 µg/mL
same,activity in the in vitro anaphylaxis model relative to DSCG,[4],10-15 times
same,ED50,ulcer caused by stress,56 mg/kg
same,ED50,[1],26 mg/kg
same,ED50,[2],32 mg/kg
same,ED50,[3],30 mg/kg
same,% inhibition of passive cutaneous anaphylaxis,[5]; 10 mg/kg I.V.,39.0%
same,% inhibition of passive cutaneous anaphylaxis,[5]; 30 mg/kg I.V.,45.3%
same,% inhibition of passive cutaneous anaphylaxis,[5]; 100 mg/kg I.V.,67.6%
same,ED50,[5],30.9 mg/kg
"CN1CCN(CC(=O)N2c3ccccc3C(=O)Nc3cccnc32)CC1 [PIRENZEPINE, pirenzepine, reference compound]",ED50,ulcer caused by 25% NaCl; [7],> 50 mg/kg
same,ED50,ulcer caused by ethanol; [8],> 50 mg/kg
same,protective activity (in words),ulcer caused by ethanol,inactive
same,ED50,ulcer caused by stress; [9],> 75 mg/kg
"COc1cc(C(=O)Nc2cc(C(=O)O)cc(C(=O)O)c2)ccc1[N+](=O)[O-] [Compound 9, N-(3,5-dicarboxy)phenyl-3-methoxy-4-nitrobenzamide]",ED50,[1],88 mg/kg
same,ED50,[2],100 mg/kg
same,ED50,[3],88 mg/kg
"O=C(O)c1cc(NC(=O)c2ccc([N+](=O)[O-])c(O)c2)cc(C(=O)O)c1 [Compound 6, N-(3,5-dicarboxy)phenyl-3-hydroxy-4-nitrobenzamide]",ED50,[1],210 mg/kg
same,ED50,[2],205 mg/kg
same,ED50,[3],186 mg/kg
"O=C(O)c1cc(NC(=O)c2ccc([N+](=O)[O-])cc2)cc(C(=O)O)c1 [Compound 2, N-(3,5-dicarboxy)phenyl-4-nitrobenzamide]",ED50,[1],91 mg/kg
same,ED50,[2],109 mg/kg
same,ED50,[3],68 mg/kg
"O=C(O)c1cc(NC(=O)c2ccc(-c3nn[nH]n3)cc2)cc(C(=O)O)c1 [Compound 11, N-(3,5-dicarboxy)phenyl-4-(5-tetrazolyl)-benzamide]",ED50,ulcer caused by 25% NaCl; [7],29 mg/kg
same,ED50,ulcer caused by ethanol; [8],7 mg/kg
same,inhibition at 10 µg/mL,[4],11.8%
same,inhibition at 30 µg/mL,[4],27.2%
same,inhibition at 100 µg/mL,[4],42.4%
same,inhibition at 300 µg/mL,[4],53.3%
same,EC50,[4],216 µg/mL
same,activity in the in vitro anaphylaxis model relative to DSCG,[4],10-15 times
same,ED50,ulcer caused by stress; [9],65 mg/kg
same,ED50,[1],33 mg/kg
same,ED50,[2],41 mg/kg
same,ED50,[3],50 mg/kg
same,% inhibition of passive cutaneous anaphylaxis,[5]; 50 mg/kg I.V.,53.3%
same,% inhibition of passive cutaneous anaphylaxis,[5]; 100 mg/kg I.V.,66%
same,% inhibition of passive cutaneous anaphylaxis,[5]; 150 mg/kg I.V.,74.7%
same,ED50,[5],42.6 mg/kg
"NC(=O)c1cc(NC(=O)c2ccc(-c3nn[nH]n3)cc2)cc(C(=O)O)c1 [Compound 14, N-(3-carboxy-5-carbamoyl)phenyl-4-(5-tetrazolyl)-benzamide]",ED50,[1],51 mg/kg
same,ED50,[2],48 mg/kg
same,ED50,[3],48 mg/kg
"COc1ccc(C(=O)Nc2cc(C(=O)O)cc(C(=O)O)c2)cc1 [Compound 5, N-(3,5-dicarboxy)phenyl-4-methoxybenzamide]",ED50,[1],223 mg/kg
same,ED50,[2],240 mg/kg
same,ED50,[3],> 250 mg/kg
"Cc1ccc(C(=O)Nc2cc(C(=O)O)cc(C(=O)O)c2)cc1 [Compound 4, N-(3,5-dicarboxy)phenyl-4-methylbenzamide]",ED50,[1],189 mg/kg
same,ED50,[2],> 250 mg/kg
same,ED50,[3],216 mg/kg
